According to PubChem BioAssay (NCI):
Values joined by “and” are separate entries in the source; they are usually repeats but may differ in a detail not shown here. Equal entries are not always repeated.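 48-hour exposure; five concentrations; linearly interpolated endpoints. The concentration for 50% growth inhibition is given as GI50. TGI denotes the concentration required for complete inhibition of growth.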

Experiments:
Experiment in all cases: growth of human tumour cells (NCI), 48 h
786-0 renal = system: 786-0 renal
A498 renal = system: A498 renal
A549 NSCLC = system: A549 NSCLC
ACHN renal = system: ACHN renal
BT-549 breast = system: BT-549 breast
CAKI-1 renal = system: CAKI-1 renal
CCRF-CEM leukemia = system: CCRF-CEM leukemia
COLO 205 colon = system: COLO 205 colon
DU-145 prostate = system: DU-145 prostate
EKVX NSCLC = system: EKVX NSCLC
HCC-2998 colon = system: HCC-2998 colon
HCT-116 colon = system: HCT-116 colon
HCT-15 colon = system: HCT-15 colon
HL-60(TB) leukemia = system: HL-60(TB) leukemia
HOP-62 NSCLC = system: HOP-62 NSCLC
HOP-92 NSCLC = system: HOP-92 NSCLC
HS 578T breast = system: HS 578T breast
HT29 colon = system: HT29 colon
IGROV1 ovarian = system: IGROV1 ovarian
K-562 leukemia = system: K-562 leukemia
KM12 colon = system: KM12 colon
LOX IMVI melanoma = system: LOX IMVI melanoma
M14 melanoma = system: M14 melanoma
MALME-3M melanoma = system: MALME-3M melanoma
MCF7 breast = system: MCF7 breast
MDA-MB-231 breast = system: MDA-MB-231 breast
MDA-MB-435 = system: MDA-MB-435
MOLT-4 leukemia = system: MOLT-4 leukemia
NCI-H226 lung = system: NCI-H226 lung
NCI-H23 lung = system: NCI-H23 lung
NCI-H460 lung = system: NCI-H460 lung
NCI-H522 lung = system: NCI-H522 lung
NCI/ADR-RES ovarian = system: NCI/ADR-RES ovarian
OVCAR-3 ovarian = system: OVCAR-3 ovarian
OVCAR-4 ovarian = system: OVCAR-4 ovarian
OVCAR-5 ovarian = system: OVCAR-5 ovarian
OVCAR-8 ovarian = system: OVCAR-8 ovarian
PC-3 prostate = system: PC-3 prostate
RPMI-8226 leukemia = system: RPMI-8226 leukemia
RXF 393 renal = system: RXF 393 renal
SF-268 CNS = system: SF-268 CNS
SF-295 CNS = system: SF-295 CNS
SF-539 CNS = system: SF-539 CNS
SK-MEL-2 melanoma = system: SK-MEL-2 melanoma
SK-MEL-28 melanoma = system: SK-MEL-28 melanoma
SK-MEL-5 melanoma = system: SK-MEL-5 melanoma
SK-OV-3 ovarian = system: SK-OV-3 ovarian
SN12C renal = system: SN12C renal
SNB-19 CNS = system: SNB-19 CNS
SNB-75 CNS = system: SNB-75 CNS
SR leukemia = system: SR leukemia
SW-620 colon = system: SW-620 colon
T-47D breast = system: T-47D breast
TK-10 renal = system: TK-10 renal
U251 CNS = system: U251 CNS
UACC-257 melanoma = system: UACC-257 melanoma
UACC-62 melanoma = system: UACC-62 melanoma
UO-31 renal = system: UO-31 renal

O=C(Nc1cn[nH]c1-c1nc2ccc(CN3CCOCC3)cc2[nH]1)NC1CC1
GI50 (786-0 renal): 1.06 µM and 1.67 µM | TGI (786-0 renal): 7.68 µM and > 10 µM | GI50 (A498 renal): 0.373 µM | TGI (A498 renal): 3.91 µM | TGI (A549 NSCLC): 9.76 µM and > 10 µM | GI50 (ACHN renal): 2.47 µM and 5.7 µM | TGI (ACHN renal): 17.7 µM and > 10 µM | GI50 (BT-549 breast): 0.385 µM and 0.963 µM | TGI (BT-549 breast): 2.13 µM and > 10 µM | TGI (CAKI-1 renal): 15.2 µM and > 10 µM | GI50 (CCRF-CEM leukemia): 1.42 µM | TGI (CCRF-CEM leukemia): 8.69 µM | GI50 (COLO 205 colon): 0.0376 µM and 0.0752 µM | TGI (COLO 205 colon): 1.75 µM and 3.81 µM | GI50 (DU-145 prostate): 2.6 µM and > 10 µM | TGI (DU-145 prostate): 14.7 µM and > 10 µM | GI50 (EKVX NSCLC): 1.76 µM and > 10 µM | TGI (EKVX NSCLC): 9.94 µM and > 10 µM | GI50 (HCC-2998 colon): 1.76 µM and > 10 µM | TGI (HCC-2998 colon): 3.81 µM and > 10 µM | GI50 (HCT-116 colon): 0.208 µM and 0.473 µM | TGI (HCT-116 colon): 10.8 µM and > 10 µM | GI50 (HCT-15 colon): 4.52 µM and > 10 µM | TGI (HCT-15 colon): 25.6 µM and > 10 µM | GI50 (HL-60(TB) leukemia): 1.94 µM and 7.38 µM | TGI (HL-60(TB) leukemia): 5.15 µM and > 10 µM | GI50 (HOP-62 NSCLC): 0.721 µM and 1.93 µM | TGI (HOP-62 NSCLC): 4.01 µM and > 10 µM | GI50 (HOP-92 NSCLC): 0.365 µM and 1.06 µM | TGI (HOP-92 NSCLC): 2.6 µM and 8.8 µM | GI50 (HS 578T breast): 0.118 µM and 0.125 µM | TGI (HS 578T breast): 0.717 µM and 0.681 µM | GI50 (HT29 colon): 0.272 µM and 2.22 µM | TGI (HT29 colon): 4.71 µM and > 10 µM | GI50 (IGROV1 ovarian): 2.75 µM and 2.67 µM | TGI (IGROV1 ovarian): 19.8 µM and > 10 µM | GI50 (K-562 leukemia): 0.543 µM and 1.59 µM | TGI (K-562 leukemia): > 100 µM | GI50 (KM12 colon): 0.634 µM and 1.72 µM | TGI (KM12 colon): 4.06 µM and > 10 µM | GI50 (LOX IMVI melanoma): 0.324 µM and 0.604 µM | TGI (LOX IMVI melanoma): 1.88 µM and > 10 µM | GI50 (M14 melanoma): 1.52 µM and 4.84 µM | TGI (M14 melanoma): 4.34 µM and > 10 µM | GI50 (MALME-3M melanoma): 3.05 µM and > 10 µM | TGI (MALME-3M melanoma): 8.32 µM and > 10 µM | GI50 (MCF7 breast): 0.522 µM and 2.07 µM | TGI (MCF7 breast): 7.37 µM and > 10 µM | GI50 (MDA-MB-231 breast): 1.18 µM and 1.48 µM | TGI (MDA-MB-231 breast): 10.3 µM and > 10 µM | GI50 (MDA-MB-435): 1.43 µM and 6.77 µM | TGI (MDA-MB-435): 5 µM and > 10 µM | GI50 (MOLT-4 leukemia): 1.87 µM and 2.52 µM | TGI (MOLT-4 leukemia): 5.4 µM and > 10 µM | GI50 (NCI-H226 lung): 0.153 µM and 0.312 µM | GI50 (NCI-H23 lung): 1.45 µM and 7.06 µM | TGI (NCI-H23 lung): 5.16 µM and > 10 µM | GI50 (NCI-H460 lung): 1.78 µM and 7.25 µM | TGI (NCI-H460 lung): 10.5 µM and > 10 µM | GI50 (NCI-H522 lung): 0.563 µM and 1.18 µM | TGI (NCI-H522 lung): 3.43 µM and > 10 µM | GI50 (NCI/ADR-RES ovarian): 12.1 µM and > 10 µM | TGI (NCI/ADR-RES ovarian): > 86.7 µM | GI50 (OVCAR-3 ovarian): 0.306 µM and 1.32 µM | TGI (OVCAR-3 ovarian): 6.3 µM and 6.7 µM | GI50 (OVCAR-4 ovarian): 1.04 µM and > 10 µM | TGI (OVCAR-4 ovarian): 12.4 µM and > 10 µM | GI50 (OVCAR-5 ovarian): 2.78 µM and 6.68 µM | TGI (OVCAR-5 ovarian): 9.49 µM and > 10 µM | GI50 (OVCAR-8 ovarian): 1.74 µM and 5.19 µM | TGI (OVCAR-8 ovarian): 9.63 µM and > 10 µM | GI50 (PC-3 prostate): 0.957 µM and 4.29 µM | TGI (PC-3 prostate): 36.2 µM and > 10 µM | GI50 (RPMI-8226 leukemia): 7.05 µM and > 10 µM | TGI (RPMI-8226 leukemia): 28.3 µM and > 10 µM | GI50 (RXF 393 renal): 0.241 µM and 0.287 µM | TGI (RXF 393 renal): 1.79 µM and 2.17 µM | GI50 (SF-268 CNS): 0.344 µM and 1.84 µM | TGI (SF-268 CNS): 2.44 µM and > 10 µM | GI50 (SF-295 CNS): 0.195 µM and 1.09 µM | TGI (SF-295 CNS): 1.5 µM and 4.67 µM | GI50 (SF-539 CNS): 0.262 µM and 0.688 µM | TGI (SF-539 CNS): 1.35 µM and 3.7 µM | GI50 (SK-MEL-2 melanoma): 1.35 µM and > 10 µM | TGI (SK-MEL-2 melanoma): 3.94 µM and > 10 µM | GI50 (SK-MEL-28 melanoma): 1.79 µM and > 10 µM | TGI (SK-MEL-28 melanoma): 5.7 µM and > 10 µM | GI50 (SK-MEL-5 melanoma): 1.34 µM and 8.52 µM | TGI (SK-MEL-5 melanoma): 3.68 µM and > 10 µM | GI50 (SK-OV-3 ovarian): 0.375 µM and 0.299 µM | TGI (SK-OV-3 ovarian): 3.52 µM and 8.08 µM | GI50 (SN12C renal): 0.468 µM and 2.54 µM | TGI (SN12C renal): 12.1 µM and > 10 µM | GI50 (SNB-19 CNS): 1.16 µM and 2.62 µM | TGI (SNB-19 CNS): 11.3 µM and > 10 µM | GI50 (SNB-75 CNS): 0.0327 µM and 0.214 µM | TGI (SNB-75 CNS): 0.367 µM and 1.62 µM | GI50 (SR leukemia): 0.0277 µM and 0.0539 µM | TGI (SR leukemia): 4.15 µM and 5.52 µM | GI50 (SW-620 colon): 0.573 µM and 1.32 µM | TGI (SW-620 colon): 11.5 µM and > 10 µM | GI50 (T-47D breast): 1.82 µM and 9.18 µM | TGI (T-47D breast): 6.95 µM and > 10 µM | GI50 (TK-10 renal): 1.24 µM and 5.07 µM | TGI (TK-10 renal): 6 µM and > 10 µM | GI50 (U251 CNS): 0.274 µM and 1.3 µM | TGI (U251 CNS): 11.2 µM and > 10 µM | GI50 (UACC-257 melanoma): 1.72 µM and > 10 µM | TGI (UACC-257 melanoma): 7.76 µM and > 10 µM | GI50 (UACC-62 melanoma): 1.37 µM and 3.81 µM | TGI (UACC-62 melanoma): 3.5 µM and > 10 µM | GI50 (UO-31 renal): 0.851 µM and 2.33 µM | TGI (UO-31 renal): > 24.6 µM
